For 1 substance, TLR4 expression results are on record in paper PMC10748408 (Frontiers in Oncology, 2023).

The series concerns TLR4. In words: TLR4 silencing by vivo-morpholino, western blot of tumors. The series is classed as in vivo, BALB/c mice. The conditions noted are these: tumor-bearing mice, with 25 mg/kg ART, vs SC-MO, p<0.001. The protocol:
Normal and tumor tissues were homogenized in ice-cold radioimmunoprecipitation assay (RIPA) buffer containing a protease inhibitor cocktail. Proteins were resolved by 10% sodium dodecyl sulphate-polyacrylamide gel electrophoresis (SDS-PAGE), transferred onto polyvinylidene difluoride (PVDF) membranes, blocked with 5% fat-free milk and incubated with primary antibodies (1:1000 dilution) overnight at 4°C. Blots were subsequently washed and incubated with respective secondary antibodies, tagged with horseradish peroxidase. Protein expression was detected using enhanced chemiluminescence (ECL) kit ([37]). Blots were analyzed using the Gel Doc XR and band intensity quantified using ImageJ software (NIH, USA).
Murine mammary tumors were allowed to develop in BALB/c mice injected with 10^7 4T1 cells. […] Control groups were set up, where normal mice and mice-bearing tumors received PBS for 7 days. At the end of the experiment, tissues were harvested and processed for subsequent experiments.
In general terms: Immunoblotting shows a protein as a band on a membrane.

For “TLR4-VMO: vivo morpholino oligomers against TLR4 mRNA; 5' CAGGGAGGCATCATCCTGGCATTTT 3' (all phosphorodiamidate morpholino (PMO); vivo-morpholino from GeneTools, further chemistry not fully specified)”, the TLR4 expression entry was “significantly diminished”.
